Results from patent US20220125772A1, “A2A ANTAGONISTS AS COGNITION AND MOTOR FUNCTION ENHANCERS” (Biotie Therapies, Inc., priority 2010, published 2022).

Columns and labels:
Type in all cases: in vivo, human
[1] = tested on: Parkinson's disease (PD) patients; assay: Go/No-Go (GNG) Test in Parkinson's disease patients, double-blind crossover study; conditions: for GNG reaction times: vs placebo plus levodopa
From the text: (§1) Continuous performance testing, in various forms, has become a standard clinical procedure. Generally speaking, continuous performance testing evaluates a subject's visual attention by displaying a series of visual stimuli, to which the subject is instructed to respond. In a typical case, often referred to as a “Go—No Go” test, the stimuli are of two types (the “Go” and “No Go” stimuli); the subject is instructed to respond only to the “Go” stimulus, and not to respond or “pass” when presented with the “No Go” stimulus. Data collected for each stimulus presented consists of the type of the stimulus; whether or not the subjects responded; and, if so, how long they took to respond. The continuous performance test has been in use since the 1950s.
(§2) Parkinson's disease (PD) patients participated in a double-blind, crossover study to assess the effect of co-administration of an A2a antagonist with a dopamine precursor on cognition and motor function. The A2a antagonist was 4-hydroxy-4-methyl-piperidine-1-carboxylic acid-(4-methoxy-7-morpholin-4-yl-benzothiazol-2-yl)-amide and the dopamine precursor was levodopa.
(§3) The patients were randomly allocated to 1 week of 4-hydroxy-4-methyl-piperidine-1-carboxylic acid-(4-methoxy-7-morpholin-4-yl-benzothiazol-2-yl)-amide and levodopa, 1 week washout (levodopa only), then 1 week placebo plus levodopa or the reverse order. Optimal levodopa doses were established for each patient according to normal clinical practice. Active drug was administered at 60 mg bid (N=14) or 20 mg bid (N=12) of 4-hydroxy-4-methyl-piperidine-1-carboxylic acid-(4-methoxy-7-morpholin-4-yl-benzothiazol-2-yl)-amide. At the end of each treatment week, participants completed motor assessments, a Continuous Performance Test (CPT), a Go/No-Go (GNG) Test, and a 2-Back Test after overnight withdrawal of levodopa and again after intravenous (IV) infusion of a suboptimal level of levodopa.
Subjects monitored a visual display while single uppercase letters were presented one at a time interspersed with the number “5”. Participants were instructed to push a target response button at the occurrence of every letter (i.e., a “Go” response) but to withhold a response for the number 5 (i.e., a “No-Go” response). Target frequency was manipulated in a blocked fashion, with two levels of target frequency (83% letters: 17% “5”s; 50% letters: 50% “5”s).

[2] = tested on: Parkinson's disease (PD) patients; assay: Continuous Performance Test (CPT) in Parkinson's disease patients, double-blind crossover study; conditions: either dose (60 mg bid, 20 mg bid) with levodopa; all p-values>0.05
From the text: as §1, §2
The patients were randomly allocated to 1 week of 4-hydroxy-4-methyl-piperidine-1-carboxylic acid-(4-methoxy-7-morpholin-4-yl-benzothiazol-2-yl)-amide and levodopa, 1 week washout (levodopa only), then 1 week placebo plus levodopa or the reverse order. […]

[3] = tested on: Parkinson's disease (PD) patients; assay: 2-Back Test in Parkinson's disease patients, double-blind crossover study; conditions: either dose (60 mg bid, 20 mg bid) with levodopa; all p-values>0.05
From the text: as §2, §3

[4] = tested on: Parkinson's disease (PD) patients; assay: Motor assessments (tapping speed, UPDRS item) in Parkinson's disease patients, double-blind crossover study
From the text: as §2, §3

[5] = tested on: Parkinson's disease (PD) patients; assay: Participant-reported sleepiness in Parkinson's disease patients, double-blind crossover study; conditions: compared to placebo
From the text: as §2, §3

[6] = FIG. 1 legend, A2a antagonist compared with placebo, dose not stated

COc1ccc(N2CCOCC2)c2sc(NC(=O)N3CCC(C)(O)CC3)nc12 [4-hydroxy-4-methyl-piperidine-1-carboxylic acid-(4-methoxy-7-morpholin-4-yl-benzothiazol-2-yl)-amide]
GNG reaction times ([1]; 20 mg bid for 1 week with levodopa, p=0.05, N=12): faster GNG reaction times | GNG accuracy ([1]; 60 mg bid and 20 mg bid with levodopa, ps>0.25): without reduced accuracy | GNG reaction times ([1]; 60 mg bid for 1 week with levodopa, p<0.01, N=14): faster GNG reaction times | Go/No-Go task mistakes (FIG. 1) [1, 6]: fewer mistakes | Go/No-Go task reaction time (FIG. 1) [1, 6]: reaction times are faster | effect on the CPT test [2]: no significant effects | effect on the 2-Back test [3]: no significant effects | rapidly alternating hand movements item from the UPDRS ([4]; 60 mg bid and levodopa, p=0.03): significant | tapping speed ([4]; 60 mg bid, before and after levodopa, p: 0.05): significant motor benefit | reported sleepiness ([5]; 20 mg bid, p>0.05): no significant difference | reported sleepiness ([5]; 60 mg bid, before and after levodopa, p<0.05): less sleepiness
